Experimental data: patent US20180271870A1, “Compositions and Methods for Immune Therapy” (Augusta University Research Institute, Inc., priority 2014, published 2018)

What was measured:
CD8 T cells [1] = assay: Phenotyping of gp100-stimulated pMel-1 CD8 T cells by flow cytometry; assay type: cell-based, mouse; details: for up-regulation of exhaustion marker KLRG-1 in CD8 T cells: after the second and third stimulations; for CD62L expression in CD8 T cells / CD127 expression in CD8 T cells: day 3 and/or day 7 after each stimulation with gp100; for percentage of CD8 T cells with TCM phenotype (CD62LhiCD44hi): pMel-1 splenocytes, gp100 25-33 1 μM, representative example, gated viable CD8+Vβ13+; for percentage of naïve cells (CD62LhiCD44lo) versus non-treated: after 3 days of stimulation; for reservoir of TCM cells after repeated stimulation: day 7 after each stimulation, MK-2206 0.67 μM, Akt 1/2 inhibitor 2.2 μM
Protocol: Tumor antigen-specific CD8 T cells Unfractionated splenocytes from pMel-1 mice were homogenized and stimulated in vitro by gp10025-33 peptide at a 1 μM/ml concentration (day 0). Cells were cultured in RPMI 1640 (Lonza, Allendale, N.J.) supplemented with 10% FBS, penicillin (100 U/mL), streptomycin ([…]), 0.1% β-mercaptoethanol (Life Technologies, Invitrogen, Carlsbad, Calif.) and IL-2 (100 U/ml) (Peprotech, Rocky Hill, N.J.) at 37° C. with 5% CO2. […]. The concentration of the inhibitors was maintained throughout the culture by changing the media every 48-72 hours.
On Days 7, 14 and 21, cells were re-stimulated with gp10025-33 peptide at a 1 μM/ml concentration using feeder cells (irradiated WT splenocytes, 4000 Rads) at 1:1 ratio using the same culture conditions.
To assess the phenotype of the T cells, the cultured cells were harvested and analyzed on days 3, 7, 14 and 21. The cells were stained with APC-Cy7 labeled anti-CD8, FITC labeled anti-Vβ13, PE labeled anti-CD62L, APC labeled anti-CD44, PE-CF594 labeled anti-CD127, APC labeled anti-KLRG-1 in addition to the viability stain 7AAD (BD Biosciences, San Jose, Calif.). The same APC-Cy7 labeled anti-CD8 was used for sorting the cells using the FACS ARIA II (BD Biosciences, San Jose, Calif.).
For proliferation and phenotyping, the analyses were performed on CD8 T cells specific for the gp100 antigen and were gated on viable (7AAD−), Vβ13+CD8+ T cells. For WT and KO cells, the cells were gated on viable (7AAD−), CD8+ T cells.

CD8 T cells [2] = assay: Proliferation assay (VCT dye dilution / expansion) of gp100-stimulated pMel-1 CD8 T cells; assay type: cell-based, mouse; details: for expansion of CD8 T cells with further stimulations: re-stimulation days 7, 14, 21, normalized to non-treated control; for proliferation of CD8 T cells (VCT dilution): day 3 after first stimulation
Protocol: Prior to their stimulation (day 0), cells were labeled with 5 μM Violet Cell Trace (VCT) proliferation dye (Life Technologies, Invitrogen, Carlsbad, Calif.) following the manufacturers' instructions. Samples were then evaluated for CD8 T cell expansion via VCT dye dilution (day 3) using an LSRII SORP with HTS Flow Cytometer (BD Biosciences, San Jose, Calif.). The data were analyzed using FlowJo 9 or 10 (Tree Star).

[3] = intermittent dosing schedule of 480 mg twice a day; cited from earlier work
CD8 T cells [4] = assay: Cytometric bead array of cytokine secretion by re-stimulated pMel-1 CD8 T cells; assay type: cell-based, mouse; details: for IL-2 secretion: re-stimulated CD8 T cells; for IFNγ secretion with further stimulations / TNF secretion with further stimulations: supernatant after 24 hours, CBA
Protocol: Following the same activation protocol mentioned above, the pMel-1 gp100-specific CD8 T cells were harvested on day 7 after the first and second stimulation. The viable cells (trypan blue negative) were then counted and co-incubated (at 1:1 ratio) with 1 μM/ml gp10025-33 pulsated irradiated splenocytes (4000 Rads) for 24 hours using the same culture conditions. The supernatant was collected and the level of IL-2, TNF and IFN-γ was assessed using the mouse Th1/Th2/Th17 Cytokine Kit BD™ Cytometric Bead Array (CBA) kit. The data was collected using an LSRII SORP with HTS flow cytometer (BD Biosciences, San Jose, Calif.), and analyzed using the FCAP Array Software v3.0 (BD Biosciences, San Jose, Calif.).

CD8 T cells [5] = assay: Phenotype of anti-CD3/anti-CD28 stimulated CD8 T cells from WT and Akt KO mice; assay type: cell-based, mouse; details: day 7; anti-CD3 (1 ng/ml) + anti-CD28; MK-2206 0.67 μM, Akt 1/2 inhibitor 2.2 μM
Protocol: The cells were then stimulated using feeder cells (irradiated WT splenocytes, 4000 Rads) at 1:1 ratio (day 0) using TCR stimulation ([…], BD Biosciences, San Jose, Calif.) and co-stimulation (anti-CD28 antibody 2.5 μg/ml BD Biosciences, San Jose, Calif.) in the presence of 100 U/ml IL-2 (Peprotech, Rocky Hill, N.J.). […] Cells were cultured in the same conditions described above. To assess the phenotype of the T cells, the cultured cells were harvested and analyzed on days 3, 7, 14 and 21. The cells were stained with APC-Cy7 labeled anti-CD8, FITC labeled anti-Vβ13, PE labeled anti-CD62L, APC labeled anti-CD44, PE-CF594 labeled anti-CD127, APC labeled anti-KLRG-1 in addition to the viability stain 7AAD (BD Biosciences, San Jose, Calif.). The same APC-Cy7 labeled anti-CD8 was used for sorting the cells using the FACS ARIA II (BD Biosciences, San Jose, Calif.). For proliferation and phenotyping, the analyses were performed on CD8 T cells specific for the gp100 antigen and were gated on viable (7AAD−), Vβ13+CD8+ T cells. For WT and KO cells, the cells were gated on viable (7AAD−), CD8+ T cells.

[6] = test system: 250 other protein kinases; details: cited from earlier work
[7] = cited from earlier work

SMILES	up-regulation of exhaustion marker KLRG-1 in CD8 T cells (CD8 T cells [1])	CD62L expression in CD8 T cells (CD8 T cells [1])	CD127 expression in CD8 T cells (CD8 T cells [1])	percentage of CD8 T cells with TCM phenotype (CD62LhiCD44hi) (CD8 T cells [1]) [%]	expansion of CD8 T cells with further stimulations (CD8 T cells [2])	percentage of naïve cells (CD62LhiCD44lo) versus non-treated (CD8 T cells [1])	reservoir of TCM cells after repeated stimulation (CD8 T cells [1])	proliferation of CD8 T cells (VCT dilution) (CD8 T cells [2])	IL-2 secretion (CD8 T cells [4])	IFNγ secretion with further stimulations (CD8 T cells [4])	TNF secretion with further stimulations (CD8 T cells [4])	TCM cells in CD8 T cells from Akt1 KO mice (CD8 T cells [5])	TCM cells in CD8 T cells from Akt2 KO mice (CD8 T cells [5])	TCM cells in CD8 T cells from Akt3 KO mice (CD8 T cells [5])	phenotype of CD8 T cells from WT mice (CD8 T cells [5])	other results
NC1(C(=O)N[C@@H](CCO)c2ccc(Cl)cc2)CCN(c2ncnc3[nH]ccc23)CC1 [AZD5363]	inhibits the up-regulation	maintains a high level	maintains a high level	91	enhanced the proliferation											tolerability [3]: generally well tolerated
O.O=C(O)C(F)(F)F.O=c1[nH]c2ccccc2n1C1CCN(Cc2ccc(-c3nc4cc5[nH]cnc5cc4nc3-c3ccccc3)cc2)CC1 [Akt 1/2 inhibitor, 1,3-Dihydro-1-(1-((4-(6-phenyl-1H-imidazo[4,5-g]quinoxalin-7-yl)phenyl)methyl)-4-piperidinyl)-2H-benzimidazol-2-one trifluoroacetate salt hydrate]	mitigates the up-regulation	maintains a high level	maintains a high level	76	significantly enhanced	higher percentage	a high percentage was preserved	inhibited in a dose-dependent manner	high secretion levels	preserved high levels	preserved high levels	more TCM cells	maintains a significantly higher percentage of TCM cells	maintains a significantly higher percentage of TCM cells	consist mainly of TCM cells	
NC1(c2ccc(-c3nc4ccn5c(=O)[nH]nc5c4cc3-c3ccccc3)cc2)CCC1 [MK-2206]	inhibits the up-regulation	maintains a high level	maintains high levels	65	expand at a significantly high rate	higher percentage	a high percentage was preserved	inhibited in a dose-dependent manner	significantly higher levels	maintain their ability to secrete IFNγ	significantly higher levels	more TCM cells	maintains a significantly higher percentage of TCM cells	maintains a significantly higher percentage of TCM cells	consist mainly of TCM cells	IFN-γ production after the second stimulation versus non-treated (CD8 T cells [4]; 24 hours after re-stimulation): high and comparable levels; IFN-γ secretion after the third stimulation versus non-treated (CD8 T cells [4]; 24 hours after re-stimulation): maintained at a significantly higher level; TNF production after the second stimulation versus non-treated (CD8 T cells [4]; 24 hours after re-stimulation): high and comparable levels; TNF secretion after the third stimulation versus non-treated (CD8 T cells [4]; 24 hours after re-stimulation): maintained at a significantly higher level; inhibitory activities against 250 other protein kinases [6]: no inhibitory activities; dose-limiting toxicities ([7]; 30, 60, 75 or 90 mg on alternate days): skin rash and stomatitis; MTD ([7]; oral, alternate days, patients with advanced solid tumors): 60 mg
